{"source": "patent EP1510220B1", "about": "(priority 1993, dated 1994)", "key": {"[1]": {"tested_on": "Vascular smooth muscle cells"}, "[2]": {"tested_on": "B054 cells (baboon smooth muscle cells)", "assay": "cells", "format": "cell-based"}, "[3]": {"tested_on": "TGF-beta1 mRNA", "conditions": "vascular smooth muscle cells, 24 h, 10 µM"}, "[4]": {"assay": "Proliferation of explant-derived (EX) human VSMC cultures", "format": "cell-based", "conditions": "human, aortic vsmc ex cultures", "method": "(§1) Human aortic VSMC cultures. Adult human VSMC were obtained from 6 transplant donors (either sex, age range from 3 to 54 years) using the enzyme dispersal or explant technique. In one case, the same donor (a person) was used to establish both an enzyme-dispersed (ED) and explant-derived (EX) cell culture. Prior to enzyme-dispersion or explanting treatment, human aortas were obtained within 18 h of death. The endothelium layer was removed with a scalpel blade and strips of smooth muscle cells (tunica media) were removed with forceps and chopped into small pieces (1 mm^3).\n(§2) EX Cultures. The aortic pieces were washed once with D-MEM + 10% FCS, resuspended in a small volume of fresh D-MEM + 10% FCS, and transferred to culture flasks or Petri dishes. The pieces were allowed to sediment onto the plastic and were evenly distributed (≈ 4 pieces/cm^2). Cells started to grow out from the explants after 3-7 d in culture. The aortic pieces were removed during the third week in culture, and the cells adhering to the plastic were allowed to grow to confluence for a further week. The cells were then subcultured every 4-5 days by releasing them with trypsin/EDTA and diluting them 1:2 in D-MEM + 10% FCS. Subcultured cells were incubated with fresh D-MEM + 20% FCS as described for ED cultures.\n(§3) Cell counting, DNA synthesis assays and assays for total and active TGF-beta were performed as described in Example 7."}, "[5]": {"tested_on": "human EX cultures", "assay": "Proliferation of explant-derived (EX) human VSMC cultures", "format": "cell-based", "conditions": "Homo sapiens, VSMC", "method": "as §1, §2, §3"}, "[6]": {"tested_on": "mink lung endothelial (MvLu) cells", "assay": "DNA synthesis of MvLu cells, direct addition of agent", "format": "cell-based", "conditions": "50 micromolar in fresh DMEM + 10% FCS", "method": "Assays for TGF-Beta. The TGF-beta activity present in medium conditioned on various cells was determined by DNA synthesis assay on mink lung […] (MvLu) cells; a modification of the assay described in Danielpour et al., J. Cell. Physiol., 138: 79-83, 1989. MvLu cells were subcultured at 1:5 dilution in DMEM + 10% FCS. After 24 hours, the medium was replaced with the conditioned medium to be tested in the absence or presence of the neutralizing antiserum to TGF-beta at 10 micrograms/ml. DNA synthesis during a 1 hour pulse of [^3H]-thymidine (5 microcuries/ml) was determined 23 hours after addition of the test medium. TGF-beta activity was calculated as the proportion of the inhibition of DNA synthesis which was reversed in the presence of neutralizing antibody, using a standard curve to convert the inhibition values into quantities of TGF-beta. The TGF-beta1 standards and conditioned media both contained 10% FCS in DMEM."}}, "note": "Where two headings read alike, the source gives them in different places."}
{"compound": "cytochalasin B", "values": [{"measurement": "morphological cytotoxicity grade", "setting": "[1]; 0.01ug, 24 hrs + 24 hrs", "value": 0}, {"measurement": "morphological cytotoxicity grade", "setting": "[1]; 0.01ug, 24 hrs + 48 hrs", "value": 0}, {"measurement": "morphological cytotoxicity grade", "setting": "[1]; 0.01ug, 24 hrs + 72 hrs", "value": 0}, {"measurement": "morphological cytotoxicity grade", "setting": "[1]; 0.01ug, 24 hrs + 96 hrs", "value": 0}, {"measurement": "morphological cytotoxicity grade", "setting": "[1]; 0.01ug, 24 hrs + 120 hrs", "value": 0}, {"measurement": "morphological cytotoxicity grade", "setting": "[1]; 0.01ug, Continuous 6 hrs", "value": 0}, {"measurement": "morphological cytotoxicity grade", "setting": "[1]; 0.01ug, Continuous 24 hrs (r11, 24 hr exposure series)", "value": 0}, {"measurement": "morphological cytotoxicity grade", "setting": "[1]; 0.01ug, Continuous 24 hrs (r17, long term continuous series)", "value": 0}, {"measurement": "morphological cytotoxicity grade", "setting": "[1]; 0.01ug, Continuous 48 hrs", "value": 0}, {"measurement": "morphological cytotoxicity grade", "setting": "[1]; 0.01ug, Continuous 72 hrs", "value": 0}, {"measurement": "morphological cytotoxicity grade", "setting": "[1]; 0.01ug, Continuous 96 hrs", "value": 0}, {"measurement": "morphological cytotoxicity grade", "setting": "[1]; 0.01ug, Continuous 120 hrs", "value": 0}, {"measurement": "morphological cytotoxicity grade", "setting": "[1]; 0.01ug, Continuous 168 hrs", "value": 0}, {"measurement": "morphological cytotoxicity grade", "setting": "[1]; 0.01ug, Continuous 216 hrs", "value": 0}, {"measurement": "morphological cytotoxicity grade", "setting": "[1]; 0.01ug, Continuous 264 hrs", "value": 0}, {"measurement": "morphological cytotoxicity grade", "setting": "[1]; 0.1 ug, 5 min + 2 hrs", "value": 0}, {"measurement": "morphological cytotoxicity grade", "setting": "[1]; 0.1 ug, 5 min + 6 hrs", "value": 0}, {"measurement": "morphological cytotoxicity grade", "setting": "[1]; 0.1 ug, 5 min + 24 hrs", "value": 0}, {"measurement": "morphological cytotoxicity grade", "setting": "[1]; 0.1 ug, 5 min + 48 hrs", "value": 0}, {"measurement": "morphological cytotoxicity grade", "setting": "[1]; 0.1 ug, 5 min + 72 hrs", "value": 0}, {"measurement": "morphological cytotoxicity grade", "setting": "[1]; 0.1 ug, 5 min + 96 hrs", "value": 0}, {"measurement": "morphological cytotoxicity grade", "setting": "[1]; 0.1 ug, 5 min + 120 hrs", "value": 0}, {"measurement": "morphological cytotoxicity grade", "setting": "[1]; 0.1 ug, 24 hrs + 24 hrs", "value": 0.5}, {"measurement": "morphological cytotoxicity grade", "setting": "[1]; 0.1 ug, 24 hrs + 48 hrs", "value": 1}, {"measurement": "morphological cytotoxicity grade", "setting": "[1]; 0.1 ug, 24 hrs + 72 hrs", "value": 0.5}, {"measurement": "morphological cytotoxicity grade", "setting": "[1]; 0.1 ug, 24 hrs + 96 hrs", "value": 0}, {"measurement": "morphological cytotoxicity grade", "setting": "[1]; 0.1 ug, 24 hrs + 120 hrs", "value": 0}, {"measurement": "morphological cytotoxicity grade", "setting": "[1]; 0.1 ug, Continuous 6 hrs", "value": 0}, {"measurement": "morphological cytotoxicity grade", "setting": "[1]; 0.1 ug, Continuous 24 hrs (r11, 24 hr exposure series)", "value": 1}, {"measurement": "morphological cytotoxicity grade", "setting": "[1]; 0.1 ug, Continuous 24 hrs (r17, long term continuous series)", "value": 0}, {"measurement": "morphological cytotoxicity grade", "setting": "[1]; 0.1 ug, Continuous 48 hrs", "value": 1}, {"measurement": "morphological cytotoxicity grade", "setting": "[1]; 0.1 ug, Continuous 72 hrs", "value": 1}, {"measurement": "morphological cytotoxicity grade", "setting": "[1]; 0.1 ug, Continuous 96 hrs", "value": 2}, {"measurement": "morphological cytotoxicity grade", "setting": "[1]; 0.1 ug, Continuous 120 hrs", "value": 1}, {"measurement": "morphological cytotoxicity grade", "setting": "[1]; 0.1 ug, Continuous 168 hrs", "value": 1}, {"measurement": "morphological cytotoxicity grade", "setting": "[1]; 0.1 ug, Continuous 216 hrs", "value": 1}, {"measurement": "morphological cytotoxicity grade", "setting": "[1]; 0.1 ug, Continuous 264 hrs", "value": 1}, {"measurement": "morphological cytotoxicity grade", "setting": "[1]; 1 ug, 5 min + 2 hrs", "value": 0}, {"measurement": "morphological cytotoxicity grade", "setting": "[1]; 1 ug, 5 min + 6 hrs", "value": 1}, {"measurement": "morphological cytotoxicity grade", "setting": "[1]; 1 ug, 5 min + 24 hrs", "value": 0.5}, {"measurement": "morphological cytotoxicity grade", "setting": "[1]; 1 ug, 5 min + 48 hrs", "value": 1}, {"measurement": "morphological cytotoxicity grade", "setting": "[1]; 1 ug, 5 min + 72 hrs", "value": 1}, {"measurement": "morphological cytotoxicity grade", "setting": "[1]; 1 ug, 5 min + 96 hrs", "value": 1}, {"measurement": "morphological cytotoxicity grade", "setting": "[1]; 1 ug, 5 min + 120 hrs", "value": 1}, {"measurement": "morphological cytotoxicity grade", "setting": "[1]; 1 ug, 24 hrs + 24 hrs", "value": 3}, {"measurement": "morphological cytotoxicity grade", "setting": "[1]; 1 ug, 24 hrs + 48 hrs", "value": 4}, {"measurement": "morphological cytotoxicity grade", "setting": "[1]; 1 ug, 24 hrs + 72 hrs", "value": 4}, {"measurement": "morphological cytotoxicity grade", "setting": "[1]; 1 ug, 24 hrs + 96 hrs", "value": 4}, {"measurement": "morphological cytotoxicity grade", "setting": "[1]; 1 ug, 24 hrs + 120 hrs", "value": 4}, {"measurement": "morphological cytotoxicity grade", "setting": "[1]; 1 ug, Continuous 6 hrs", "value": 3}, {"measurement": "morphological cytotoxicity grade", "setting": "[1]; 1 ug, Continuous 24 hrs (r11, 24 hr exposure series)", "value": 3}, {"measurement": "morphological cytotoxicity grade", "setting": "[1]; 1 ug, Continuous 24 hrs (r17, long term continuous series)", "value": 3}, {"measurement": "morphological cytotoxicity grade", "setting": "[1]; 1 ug, Continuous 48 hrs", "value": 3}, {"measurement": "morphological cytotoxicity grade", "setting": "[1]; 1 ug, Continuous 72 hrs", "value": 3}, {"measurement": "morphological cytotoxicity grade", "setting": "[1]; 1 ug, Continuous 96 hrs", "value": 3}, {"measurement": "morphological cytotoxicity grade", "setting": "[1]; 1 ug, Continuous 120 hrs", "value": 3}, {"measurement": "morphological cytotoxicity grade", "setting": "[1]; 1 ug, Continuous 168 hrs", "value": 4}, {"measurement": "morphological cytotoxicity grade", "setting": "[1]; 1 ug, Continuous 216 hrs", "value": 4}, {"measurement": "morphological cytotoxicity grade", "setting": "[1]; 1 ug, Continuous 264 hrs", "value": 4}, {"measurement": "cytotoxicity grade", "setting": "[1]; 1 µg/ml, anti-migration/contraction effective dose, grade 1 = minimal", "value": 1}, {"measurement": "morphological cytotoxicity grade", "setting": "[1]; 10 ug, 5 min + 2 hrs", "value": 0.5}, {"measurement": "morphological cytotoxicity grade", "setting": "[1]; 10 ug, 5 min + 6 hrs", "value": 4}, {"measurement": "morphological cytotoxicity grade", "setting": "[1]; 10 ug, 5 min + 24 hrs", "value": 4}, {"measurement": "morphological cytotoxicity grade", "setting": "[1]; 10 ug, 5 min + 48 hrs", "value": 4}, {"measurement": "morphological cytotoxicity grade", "setting": "[1]; 10 ug, 5 min + 72 hrs", "value": 4.5}, {"measurement": "morphological cytotoxicity grade", "setting": "[1]; 10 ug, 5 min + 96 hrs", "value": 5}, {"measurement": "morphological cytotoxicity grade", "setting": "[1]; 10 ug, 5 min + 120 hrs", "value": 5}, {"measurement": "minimum effective dose (MED), DNA assay", "setting": "[2]; 5 minute exposure", "value": 10, "unit": "µg/mL"}, {"measurement": "minimum effective dose (MED), DNA synthesis assay", "setting": "[2]; 24 hour exposure", "value": 0.1, "unit": "µg/mL"}]}
{"compound": "CC/C(=C(\\c1ccccc1)c1ccc(OCCN(C)C)cc1)c1ccccc1", "note": "[tamoxifen, trans-2-[4-(1,2-diphenyl-1-butenyl)phenoxy]-N,N-dimethylethylamine]", "values": [{"measurement": "increase of TGF-beta1 mRNA", "setting": "[3]", "value": "approximately 10 fold"}, {"measurement": "MCC", "setting": "[4]", "value": "> 33", "unit": "µM"}, {"measurement": "inhibition at 0.5 µM", "setting": "[5]; 0.5 µM, 96 h in D-MEM + 20% FCS, vs ethanol vehicle, read-out: inhibition of the increase in cell number", "value": "27 ± 2", "unit": "%"}, {"measurement": "inhibition at 5 µM", "setting": "[5]; 5 µM, read-out: inhibition of the increase in cell number", "value": "33 ± 8", "unit": "%"}, {"measurement": "IC50", "setting": "[5]; read-out: half-maximal inhibitory dose", "value": "0.03 to 0.1", "unit": "µM"}, {"measurement": "effect on DNA synthesis of MvLu cells", "setting": "[6]", "value": "no effect on DNA synthesis"}]}
